Patent publication US20080064871A1, “Production Method of Nitrogen-Containing Fused Ring Compounds” (Japan Tobacco Inc., priority 2006, published 2008)

Biological target: T1, human URAT1 (Homo sapiens, UniProt Q96S37)
T1 construct: Human URAT1 full length cDNA was subcloned to expression vector pcDNA3.1; expressed in transfected cells; host or cells: HEK293 cells (pcDNA3.1, geneticin-selected)
T1 sequence (Q96S37 1-553): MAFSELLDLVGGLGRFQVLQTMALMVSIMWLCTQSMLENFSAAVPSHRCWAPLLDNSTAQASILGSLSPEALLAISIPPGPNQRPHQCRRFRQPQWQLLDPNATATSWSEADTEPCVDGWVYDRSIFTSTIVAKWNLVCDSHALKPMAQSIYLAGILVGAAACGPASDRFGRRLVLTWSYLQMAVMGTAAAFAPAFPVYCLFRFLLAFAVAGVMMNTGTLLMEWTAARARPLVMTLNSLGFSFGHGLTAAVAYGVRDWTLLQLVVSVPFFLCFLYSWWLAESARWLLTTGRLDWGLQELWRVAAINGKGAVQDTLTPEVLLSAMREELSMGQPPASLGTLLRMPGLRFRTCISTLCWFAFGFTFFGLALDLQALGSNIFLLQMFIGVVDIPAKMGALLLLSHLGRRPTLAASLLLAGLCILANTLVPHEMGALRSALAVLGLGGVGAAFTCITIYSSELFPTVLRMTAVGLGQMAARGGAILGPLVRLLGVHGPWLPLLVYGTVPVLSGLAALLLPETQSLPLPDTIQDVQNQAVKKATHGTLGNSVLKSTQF
Experiment: Uric acid transport inhibitory test using human URAT1-expressing cells
Type: cell-based
Details: human URAT1 expressing HEK293 cells, uptake of 14C-labeled uric acid for 5 min, room temperature; read-out: hURAT1 (IC50, concentration necessary for inhibiting the uric acid transport rate by 50%)
Excerpt: Reference Experimental Example 1 Uric Acid Transport Inhibitory Test Using Human Urat1-Expressing Cells
Human URAT1 full length cDNA was subcloned to expression vector pcDNA3.1 and human URAT1 gene was transfected into human embryonic kidney derived cell line (HEK293 cells) by liposome method using Lipofectamine2000. Simultaneously, HEK293 cells transfected with expression vector pcDNA3.1 alone (hereinafter mock cells) were also produced. HEK293 cells expressing human URAT1 gene or mock cells were selected with geneticin resistance as an index. The functional expression of human URAT1 gene was confirmed by a method similar to the following method, using transport of uric acid labeled with ^14C into the cells as an index.
Human URAT1 expressing HEK293 cells or mock cells were cultured in Dulbecco's modified Eagle's MEM medium (high glucose) containing 10% fetal bovine serum, 0.5 mg/mL geneticin sulfate, 100 units/mL penicillin and 100 μg/mL streptomycin under the conditions of 37° C. and 5% CO2 in an incubator. The cells were plated in a 96 well plate (poly-D-Lysine coated) at 1×10^5 cells/well and the following uric acid transport inhibitory test was performed 24 hr later. This test was performed at room temperature.
After the medium was removed by aspiration from each well, the cells were washed once with Hank's Balanced Salt Solution (HBSS) and preincubated with HBSS ([…]) for 5 min. HBSS was aspirated and an assay buffer (wherein NaCl in the above-mentioned HBSS had been substituted with Na-gluconate) containing various concentrations of the Example compound and a radioactive ligand (uric acid labeled with 14C; final concentration […]) was added to each well at […] and an uptake reaction was carried out for 5 min. After the reaction, the cells were washed twice with ice-cold HBSS ([…]), and Microscin ti TM 20 (PerkinElmer) was added at […]. The cells were lysed by stirring and the radioactivity of each well was measured in a liquid scintillation counter (TOP COUNT, Packard).
The uric acid transport rate (%) of the Example compound at each concentration was calculated relative to the radioactivity (difference in radioactivity between human URAT1 expressing HEK293 cells and mock cells without addition of Example compound (DMSO addition)) showing URAT1 specific uric acid transport as 100%, and the concentration (IC50) of the Example compound necessary for inhibiting the uric acid transport rate by 50% was determined. In Table-Table, “+++” means IC50 value of less than 100 nM, “++” means IC50 value of 100 nM to less than 1000 nM, and “+” means IC50 value of 1000 nM to less than 3000 nM.

First: O=C(c1cc(Cl)c(O)c(Cl)c1)N1CCCOc2ccccc21 [Example 94]
Second: O=C(c1cc(Cl)c(O)c(Cl)c1)N1CCOc2ccccc21 [Example 3, (3,5-dichloro-4-hydroxyphenyl)-(2,3-dihydrobenzo[1,4]oxazin-4-yl)-methanone]
The IC50 of the first is higher: 100 to 1000 nM for the first, < 100 nM for the second.

First: O=C(c1cnc(O)c(Cl)c1)N1CCOc2ccccc21 [Example 29, (5-chloro-6-hydroxypyridin-3-yl)-(2,3-dihydrobenzo[1,4]oxazin-4-yl)-methanone]
Second: O=C(c1cc(Cl)c(O)c([N+](=O)[O-])c1)N1CCOc2ccccc21 [Example 31, (3-chloro-4-hydroxy-5-nitrophenyl)-(2,3-dihydrobenzo[1,4]oxazin-4-yl)-methanone]
The IC50 of the first is higher: 1000 to 3000 nM for the first, < 100 nM for the second. The second is the more potent here.

`O=S(=O)(c1cc(Cl)c(O)c(Cl)c1)N1CCOc2ccccc21` [Example 22, 2,6-dichloro-4-(2,3-dihydrobenzo[1,4]oxazine-4-sulfonyl)phenol] and `O=C1COc2ccccc2N1C(=O)c1cc(Cl)c(O)c(Cl)c1` [Example 24, 4-(3,5-dichloro-4-hydroxybenzoyl)-4H-benzo[1,4]oxazin-3-one] fall in the same range of IC50: 1000 to 3000 nM for the first, 1000 to 3000 nM for the second.

First: O=C(c1cc(Cl)c(O)c(Cl)c1)N1CCOc2ccc(S(=O)(=O)N3CCCC3)cc21 [Example 33, (3,5-dichloro-4-hydroxyphenyl)-[6-(pyrrolidine-1-sulfonyl)-2,3-dihydrobenzo[1,4]oxazin-4-yl]-methanone]
Second: O=C(c1cc(Cl)c(O)c(Cl)c1)N1CCOc2ccc(Cl)cc21 [Example 51, (6-chloro-2,3-dihydrobenzo[1,4]oxazin-4-yl)-(3,5-dichloro-4-hydroxyphenyl)-methanone]
The IC50 of the first is higher: 100 to 1000 nM for the first, < 100 nM for the second. The second is the more potent here.

Biological target: T2, CYP2C9 (Homo sapiens, UniProt P11712)
T2 construct: Human liver microsome (20 mg protein/mL, 5 μL, Xenotech LLC, purchased from Lenexa Kans.); tissue Xenotech LLC; host or cells: human liver microsome
Experiment: CYP inhibitory test using human liver microsome
Type: in vitro ADME
Details: human liver microsomes, pH 7.4, probe diclofenac, model substrate diclofenac, 37° C. 10 min, LC/MS/MS, read-out: CYP2C9 inhibition IC50
Description: Reference Experimental Example 2 Cyp Inhibitory Test Using Human Liver Microsome
Human liver microsome (20 mg protein/mL, 5 μL, Xenotech LLC, purchased from Lenexa Kans.) was suspended in 100 mM potassium phosphate buffer (70 μL, pH 7.4), mixed with a solution (0.5 μL) of the Example compound dissolved in DMSO and preincubated at 37° C. for 5 min. NADPH producing system coenzyme solution (β-nicotinamide adenine dinucleotide phosphate: 5.2 mM, D-glucose-6-phosphate: 13.2 mM, magnesium chloride: 13.2 mM, glucose-6-phosphate dehydrogenase: 1.8 U/mL) 25 μL, and a model substrate (CYP3A4: midazolam 1 mM, CYP2D6: bufuralol 1 mM, CYP2C9: diclofenac 2 mM) 0.5 μL dissolved in DMSO were added to start the reaction. After incubation at 37° C. for 10 min., acetonitrile (200 μL) containing an internal standard substance (propranolol 1 μM) was added and the mixture was centrifuged (room temperature, 3000 rpm, 20 min). The amount of the metabolite produced from each model substrate in the supernatant was measured by high performance liquid chromatography/mass spectrometry (LC/MS/MS) and each CYP enzyme activity was determined. The concentration showing 50% inhibition (IC50) was calculated relative to the enzyme activity without addition of Example compound (DMSO 0.5 μL added) as 100%.

T2 sequence (P11712 whole entry): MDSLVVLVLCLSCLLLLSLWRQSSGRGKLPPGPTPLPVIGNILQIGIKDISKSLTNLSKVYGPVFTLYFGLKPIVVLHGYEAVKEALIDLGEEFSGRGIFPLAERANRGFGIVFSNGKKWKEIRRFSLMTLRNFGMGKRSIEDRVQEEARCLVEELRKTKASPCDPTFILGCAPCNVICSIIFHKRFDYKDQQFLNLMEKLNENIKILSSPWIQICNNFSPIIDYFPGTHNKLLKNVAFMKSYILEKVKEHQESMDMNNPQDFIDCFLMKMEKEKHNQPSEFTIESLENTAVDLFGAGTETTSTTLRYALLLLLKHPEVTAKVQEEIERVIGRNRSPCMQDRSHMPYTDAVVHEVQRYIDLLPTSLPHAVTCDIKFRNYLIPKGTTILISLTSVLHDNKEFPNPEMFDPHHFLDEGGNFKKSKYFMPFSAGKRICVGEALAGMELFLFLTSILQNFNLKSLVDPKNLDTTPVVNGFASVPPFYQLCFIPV

`O=C(c1cc(Cl)c(O)c(Cl)c1)N1CCCOc2ccccc21` [Example 94] showed an IC50 at 10 min of 6 µM.
